How the values were obtained:
Type in all cases: cell-based, human
C-8161 melanoma cells = experiment: Soft agar colony formation assay, combination with cisplatin; conditions: 0.25 to 1.5 μM cisplatin, 5 days, compared to untreated control cells
Protocol: Soft agar assays were conducted in order to investigate the ability of anti-Axl antibodies of the invention to inhibit anchorage-independent cell growth either alone or in combination with chemotherapeutic agents. The soft agar colony formation assay is a standard in vitro assay to test for transformed cells, as only transformed cells are able to grow in soft agar.
In brief, 750 C-8161 melanoma cells either remained untreated or were pre-incubated with the antagonistic rat anti-Axl antibody 11B7 at 15 μg/ml in IMDM medium (Gibco) for 30 min at 37° C. Subsequently, cells were combined with Difco noble agar solution resulting in 50 μl of top agar cell suspension at concentrations of Agar, FCS, and 11B7 of 0.35%, 0.2%, and 7.5 μg/ml, respectively. This cell suspension was plated on top of 50 μl of a 0.7% agarose bottom layer containing 20% FCS, and was finally covered with another 50 μl of a feeding layer solution that contains 0.2% FCS as well as cisplatin in according concentrations. In the whole of 150 μl per sample, the final concentrations of 11B7 and cisplatin were 2.5 μg/ml and 1.5 μM, 1.0 μM, 0.75 μM, 0.5 μM, or 0.25 μM, respectively. Colonies were allowed to form for 5 days and were then stained with 50 μl MTT (Sigma, 1 mg/ml in PBS) for 3 hours at 37° C. Using a Scanalyzer HTS camera system in conjunction with the HTS Bonit colony formation software (Lemnatec, Wuerselen), the effect of the antagonistic rat anti-Axl antibody 11B7 in the absence or presence of cisplatin were analyzed in triplicates.

[1] = test system: NCI/ADR-RES ovarian cancer cells; experiment: TUNEL staining, combination with doxorubicin; conditions: 24 h
Text: As rat anti-Axl antibodies of the invention turned out to interfere with Gas6-mediated anti-apoptosis of serum-starved NIH3T3-Axl cl.7 fibroblasts, the question arose, whether antagonistic anti-Axl antibodies would synergize with chemotherapeutic agents in inducing apoptosis, thereby contributing to overcome drug resistance. In this example, NCI/ADR-RES (originally named MCF-7/AdrR) cells—a ovarian cancer cell line (Liscovitch and Ravid, 2007, Cancer Letters, 245, 350-352) displaying a high level of resistance to several agents including doxorubicin (Fairchild et al., 1987, Cancer Research, 47, 5141-5148; Xu et al., 2002, The Journal of Pharmacology and Experimental Therapeutics, 302, 963-971)—were incubated with the antagonistic anti-Axl antibody 11B7 and/or doxorubicin, and apoptosis rates were determined by TUNEL staining. In brief, 3×10^4 NCI/ADR-RES cells in normal growth medium were seeded per well of an 8-chamber culture slide (BD Falcon, cat#354118) which were pre-incubated with the same medium for 1 h at 37° C. The next morning, normal growth medium was removed and cells were washed with and cultured in serum-reduced (0.5% FCS) medium. In the evening, isotypic control antibody 1D5 or the antagonistic anti-Axl antibody 11B7 were added at final concentrations of 10 μg/ml each. In the morning of day 3, doxorubicin at final concentrations of 100 μM, 150 μM, or 200 μM was added, and cells were incubated at 37° C. After 24 h, cells were rinsed once with PBS, fixed with 4% formaldehyde in PBS (pH 7.5) for 20 min at room temperature, air-dried for 5 min, and stored at −20° C. Using the commercially available Fluorescein-FragEL™ kit (Oncogene, cat#QIA39, presently being distributed through Merck-Calbiochem), TUNEL staining was performed according to the supplier's manual instructions (chapter ‘Fluorescein-FragEL™ of cell preparations fixed on slides’, page 10). Applying fluorescence microscopy, cells were analyzed and photos were taken.

[2] = test system: NCI-H292 lung cancer cells; experiment: Wound healing/scratch assay; conditions: 10 μg/ml antibody, 24 h, compared to isotypic control antibody
Text: To examine the migration and proliferation rates of different cells and culture conditions, in vitro wound healing/scratch assays are being employed for many years. These assays generally involve growing a confluent cell monolayer first. A small area is then disrupted and a group of cells are being destroyed or displaced by scratching a line through the layer with, for example, a pipette tip. The open gap is then inspected microscopically over time as the cells move in and fill the damaged area (“healing”). In brief, 1.5×10^6 NCI-H292 lung cancer cells were seeded per well of a 12 well dish and cultured in normal growth medium (RPMI, 10% FCS). After 8 h, cells were rinsed with PBS and starved in low serum medium (RPMI, 0.5% FCS) over night for 24 h. Using a sterile 200 μl pipette tip, three separate uniform wounds per well were scratched through the confluent NCI-H292 cell monolayers. […] Cells were permitted to migrate into the area of clearing for 24 h, washed once with PBS and fixed with ice cold Methanol (100%) at −20° C. After cells were stained with crystal violet (0.5% in 20% Methanol), rinsed with water and dried over night, photos of the wounds were taken.

N.N.[Cl][Pt][Cl] [cisplatin, reference compound]
soft agar colony growth, cisplatin alone (C-8161 melanoma cells): colony growth retardation in a dose-dependent manner

COc1cccc2c1C(=O)c1c(O)c3c(c(O)c1C2=O)C[C@@](O)(C(=O)CO)C[C@@H]3O[C@H]1C[C@H](N)[C@H](O)[C@H](C)O1 [doxorubicin, reference compound]
apoptosis (TUNEL staining), doxorubicin with control antibody, 100 μM ([1]; 100 μM doxorubicin + 10 μg/ml control antibody): No TUNEL staining, and hence no apoptosis
apoptosis (TUNEL staining), doxorubicin with control antibody, 150 μM ([1]; 150 μM doxorubicin + 10 μg/ml control antibody): only very week apoptosis

B1: Ch11D5-IgG2: chimeric anti-AXL antibody 11D5 with human IgG2 (antibody)
heavy: EVQLQESGPGLVKPSQSLSLTCSVTGYSITSNYWGWIRKFPGNKMEWIGHITNSGNTTYNPSLKSRISISRDTSRNQFFLQLNSVTTEDTATYYCAKGAFDYWGQGVMVTVSSASTKGPSVFPLAPCSRSTSESTAALGCLVKDYFPEPVTVSWNSGALTSGVHTFPAVLQSSGLYSLSSVVTVPSSNFGTQTYTCNVDHKPSNTKVDKTVERKCCVECPPCPAPPVAGPSVFLFPPKPKDTLMISRTPEVTCVVVDVSHEDPEVQFNWYVDGVEVHNAKTKPREEQFNSTFRVVSVLTVVHQDWLNGKEYKCKVSNKGLPAPIEKTISKTKGQPREPQVYTLPPSREEMTKNQVSLTCLVKGFYPSDIAVEWESNGQPENNYKTTPPMLDSDGSFFLYSKLTVDKSRWQQGNVFSCSVMHEALHNHYTQKSLSLSPGK
light: DIQMTQSPSSMSTSLGDRVTITCRASQDIGNYLSWFQQKVGKSPRRMIYGAIKLAVGVPSRFSGSRSGSDYSLTISSLESEDMAIYYCLQYIQFPLTFGSGTKLELKRTVAAPSVFIFPPSDEQLKSGTASVVCLLNNFYPREAKVQWKVDNALQSGNSQESVTEQDSKDSTYSLSSTLTLSKADYEKHKVYACEVTHQGLSSPVTKSFNRGEC
re-population of the cleared area (wound closure) [2]: reduced the re-population of the cleared area

B2: ch11B7-IgG2: chimeric anti-AXL antibody 11B7 with human IgG2 (antibody)
heavy: EVQLQESGPGLVKPSQSLSLTCSVTGYSITSNYWGWIRKFPGDKMEWMGYITYSGSTSYNPSLKSRISITRDTSKNQFFLQLNSVTSEDTATYYCAITTFYYWGQGVMVTVSSASTKGPSVFPLAPCSRSTSESTAALGCLVKDYFPEPVTVSWNSGALTSGVHTFPAVLQSSGLYSLSSVVTVPSSNFGTQTYTCNVDHKPSNTKVDKTVERKCCVECPPCPAPPVAGPSVFLFPPKPKDTLMISRTPEVTCVVVDVSHEDPEVQFNWYVDGVEVHNAKTKPREEQFNSTFRVVSVLTVVHQDWLNGKEYKCKVSNKGLPAPIEKTISKTKGQPREPQVYTLPPSREEMTKNQVSLTCLVKGFYPSDIAVEWESNGQPENNYKTTPPMLDSDGSFFLYSKLTVDKSRWQQGNVFSCSVMHEALHNHYTQKSLSLSPGK
light: DIQMTQAPSSLPASLGDRVTITCRASQDIGNYLRWFQQKPGKSPRLMISGATNLAAGVPSRFSGSRSGSDYSLTISSLESEDMADYYCLQSKESPWTFGGGTKLELKRTVAAPSVFIFPPSDEQLKSGTASVVCLLNNFYPREAKVQWKVDNALQSGNSQESVTEQDSKDSTYSLSSTLTLSKADYEKHKVYACEVTHQGLSSPVTKSFNRGEC
re-population of the cleared area (wound closure) [2]: reduced the re-population of the cleared area
